7 compounds from patent publication US20250326753A1, “DUAL CXCR4-BTK INHIBITORS” (X4 Pharmaceuticals, Inc., priority 2022, published 2025) can be followed below.

The term IC50 denotes the concentration that inhibits the measured activity by half.

The target of experiment [1] is T1, FGFR1 (Homo sapiens, UniProt P11362).
T1 construct: purchased Reaction Biology Europe GmbH
The experiment in a line: PanQinase kinase panel: FGFR1. Conditions: read-out: INHIBITORY EFFECT @ 1 uM: FGFR1. Type of experiment: biochemical. How it is done: (§1) Screening procedures were performed in accordance with the company's on-line protocol [accessed on-line Mar.
(§2) For each kinase, the median value of the cpm of three wells was defined as “low control” (n=3). This value reflects unspecific binding of radioactivity to the plate in the absence of a protein kinase but in the presence of the substrate. Additionally, for each kinase the median value of the cpm of three other wells was taken as the “high control,” i.e. full activity in the absence of any inhibitor (n=3). The difference between high and low control of each enzyme was taken as 100% activity.
(§3) As part of the data evaluation the low control of each kinase was subtracted from the high control value as well as from their corresponding “compound values”. The residual activity (in %) for each compound well was calculated by using the following formula: Res. Activity (%)=100×[(signal of compound−low control)/(high control−low control)].

The target of experiment [2] is T2, FGFR2 (Homo sapiens, UniProt P21802).
T2 construct: purchased Reaction Biology Europe GmbH
T2 sequence (P21802 22-821): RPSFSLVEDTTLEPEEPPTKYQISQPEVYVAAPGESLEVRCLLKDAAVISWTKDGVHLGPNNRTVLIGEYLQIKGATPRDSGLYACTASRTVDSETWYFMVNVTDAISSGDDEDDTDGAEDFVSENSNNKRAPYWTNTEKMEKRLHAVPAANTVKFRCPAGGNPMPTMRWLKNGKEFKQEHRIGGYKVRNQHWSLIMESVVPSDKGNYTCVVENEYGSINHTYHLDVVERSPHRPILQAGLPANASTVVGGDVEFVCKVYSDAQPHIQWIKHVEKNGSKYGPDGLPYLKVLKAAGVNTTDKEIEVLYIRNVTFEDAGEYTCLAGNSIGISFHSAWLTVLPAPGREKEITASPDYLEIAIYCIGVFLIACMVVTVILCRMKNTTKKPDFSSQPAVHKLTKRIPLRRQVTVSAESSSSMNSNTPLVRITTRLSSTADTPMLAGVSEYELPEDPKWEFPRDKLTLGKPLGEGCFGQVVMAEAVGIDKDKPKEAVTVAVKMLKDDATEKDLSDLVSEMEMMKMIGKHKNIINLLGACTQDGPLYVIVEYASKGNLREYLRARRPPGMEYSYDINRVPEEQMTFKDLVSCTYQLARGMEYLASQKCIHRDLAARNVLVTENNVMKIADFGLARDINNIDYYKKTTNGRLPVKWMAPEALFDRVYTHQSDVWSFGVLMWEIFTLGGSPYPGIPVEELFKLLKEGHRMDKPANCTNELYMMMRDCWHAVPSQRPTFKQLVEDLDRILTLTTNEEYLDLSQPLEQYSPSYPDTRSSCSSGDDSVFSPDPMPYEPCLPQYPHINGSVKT
The experiment in a line: PanQinase kinase panel: FGFR2. Conditions: read-out: INHIBITORY EFFECT @ 1 uM: FGFR2. Type of experiment: biochemical. The method, then:
Screening procedures were performed in accordance with the company's on-line protocol [accessed on-line Mar. 25, 2022 at reaction biology.com/assay-protocol-panqinase]. Inhibitory activity of 50% or greater at concentrations of 1 μM are highlighted for all five compounds tested.
as §2, §3

Experiment [3] addresses T3, FGR (Homo sapiens, UniProt P09769).
T3 construct: purchased Reaction Biology Europe GmbH
The experiment in a line: PanQinase kinase panel: FGR. Type of experiment: biochemical. Conditions: read-out: INHIBITORY EFFECT @ 1 uM: FGR. How it is done: as §1, §2
As part of the data evaluation the low control of each kinase was subtracted from the high control value as well as from their corresponding “compound values”.

Experiment [4] has as its target T4, INSR (Homo sapiens, UniProt P06213).
T4 construct: purchased Reaction Biology Europe GmbH
The experiment in a line: PanQinase kinase panel: INSR. Conditions: read-out: INHIBITORY EFFECT @ 1 uM: INSR. Type of experiment: biochemical. The method, then: as §1, §2, §3

Experiment [5] addresses T5, MEK1 (Homo sapiens, UniProt Q02750).
T5 construct: purchased Reaction Biology Europe GmbH
Nature of the experiment: PanQinase kinase panel: MEK1. Type of experiment: biochemical. Conditions: read-out: INHIBITORY EFFECT @ 1 uM: MEK1. The method, then:
as §1, §2, §3

Experiment [6] deals with T6, ABL2 (Homo sapiens, UniProt P42684).
T6 construct: purchased Reaction Biology Europe GmbH
T6 sequence (P42684 whole entry): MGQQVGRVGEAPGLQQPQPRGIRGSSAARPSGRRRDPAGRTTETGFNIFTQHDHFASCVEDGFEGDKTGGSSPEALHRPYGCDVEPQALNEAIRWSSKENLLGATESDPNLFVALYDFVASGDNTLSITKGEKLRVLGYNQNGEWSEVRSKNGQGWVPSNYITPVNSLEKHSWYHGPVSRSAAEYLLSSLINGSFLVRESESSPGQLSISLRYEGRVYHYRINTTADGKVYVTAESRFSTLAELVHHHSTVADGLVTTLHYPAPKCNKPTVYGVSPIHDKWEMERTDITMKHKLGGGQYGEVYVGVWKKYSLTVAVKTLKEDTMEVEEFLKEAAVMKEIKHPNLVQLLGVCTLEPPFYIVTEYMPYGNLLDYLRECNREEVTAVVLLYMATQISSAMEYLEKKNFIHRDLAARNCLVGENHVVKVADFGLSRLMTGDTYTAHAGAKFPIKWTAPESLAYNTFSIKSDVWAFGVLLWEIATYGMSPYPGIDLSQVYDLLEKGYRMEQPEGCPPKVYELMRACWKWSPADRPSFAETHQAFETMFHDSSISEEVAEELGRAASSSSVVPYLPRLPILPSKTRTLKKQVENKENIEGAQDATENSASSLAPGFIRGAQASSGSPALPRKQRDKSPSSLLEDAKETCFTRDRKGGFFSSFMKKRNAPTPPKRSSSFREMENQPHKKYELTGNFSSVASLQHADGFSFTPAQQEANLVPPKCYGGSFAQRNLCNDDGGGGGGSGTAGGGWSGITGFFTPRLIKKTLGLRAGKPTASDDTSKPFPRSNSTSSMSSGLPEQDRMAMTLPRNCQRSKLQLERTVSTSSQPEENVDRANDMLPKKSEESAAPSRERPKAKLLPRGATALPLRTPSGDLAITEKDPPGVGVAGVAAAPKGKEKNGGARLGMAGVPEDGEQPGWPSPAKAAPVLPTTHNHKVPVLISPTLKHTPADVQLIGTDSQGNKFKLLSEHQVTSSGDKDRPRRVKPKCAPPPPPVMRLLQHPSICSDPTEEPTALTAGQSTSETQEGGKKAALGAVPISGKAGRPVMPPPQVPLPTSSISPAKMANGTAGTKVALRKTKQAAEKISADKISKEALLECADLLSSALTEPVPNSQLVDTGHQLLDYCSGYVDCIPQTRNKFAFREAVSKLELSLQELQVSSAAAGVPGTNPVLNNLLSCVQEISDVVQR
The experiment in a line: PanQinase kinase panel: ABL2. Type of experiment: biochemical. How it is done: as §1, §2, §3

Experiment [7] has as its target T7, LIMK2 (Homo sapiens, UniProt P53671).
T7 construct: purchased Reaction Biology Europe GmbH
Nature of the experiment: PanQinase kinase panel: LIMK2. Type of experiment: biochemical. The method, then:
as §1, §2, §3

The target in experiment [8] is CXCR4 (Homo sapiens, UniProt P61073). Nature of the experiment: Intracellular CXCL-12-induced calcium mobilization assay (FLIPR), U87.CXCR4 cells. Type of experiment: cell-based. On the set-up: expressed in transfected cells; host or cells: U87 (U87.CXCR4). Conditions: CXCL-12 25-50 ng/ml, read-out: IC50 CXCL-12 Ca2+ flux U87.CXCR4+. A digest of the protocol:
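U87 cells transfected with CXCR4 were loaded with 4 μM Fluo-2 AM for 45 min at 37° C in HBSS with 20 mM HEPES and 0.2% BSA, pH 7.4. Calcium mobilization induced by CXCL-12 (25-50 ng/ml) was followed over time by FLIPR fluorescence at 37° C.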

The target of experiment [9] is BTK (Homo sapiens, UniProt Q06187). The experiment in a line: BTK Kinase Enzyme System with ADP-Glo Kinase Assay. On the set-up: Recombinant full-length human BTK was expressed by baculovirus in Sf9 insect cells; His (N); purchased Promega V9071; host or cells: Sf9 insect cells (baculovirus). Type of experiment: biochemical. Conditions: 50 μM ATP. The method, then:
Inhibition of BTK activity was evaluated using the BTK Kinase Enzyme System in combination with the ADP-Glo™ Kinase Assay Kit (V9071, Promega), according to manufacturer's instructions. Luminescence was detected on a PerkinElmer EnVision Multimode Plate Reader.
Recombinant full-length human BTK was expressed by baculovirus in Sf9 insect cells using an N-terminal His tag, MW ˜78 kDa. Substrate solution contained Poly (4:1 Glu, Tyr) Peptide Substrate. BTK Kinase Buffer consisted of: 40 mM Tris, pH 7.5; 20 mM MgCl2; 0.1 mg/ml BSA; 2 mM MnCl2; 50 μM DTT. ADP-Glo™ Reagents were thawed at ambient temperature; components of BTK Enzyme System, ADP and ATP were thawed on ice. Final assay conditions used 3 ng BTK, 50 μM ATP, and 0.2 mg/mL substrate. Compounds were tested at 11 dose points in duplicates, in 3-fold dilution with top concentration at 10 μM.
Assay performance was evaluated according to the reference compound Staurosporine, which was within 3-5 fold of published results and between different tests, with a Z′ value larger than 0.5, where applicable.
In general terms: ADP-Glo first removes unused ATP, then detects ADP through luciferase.

The mark [10] stands for this setting: read-out: INHIBITORY EFFECT @ 1 uM: ABL2.
Setting [11] is: read-out: INHIBITORY EFFECT @ 1 uM: LIMK2.

Each structure is given as a SMILES string. Read-outs that look alike come from different tables or passages of the source.

Chain of CXCR4 (P61073 whole entry): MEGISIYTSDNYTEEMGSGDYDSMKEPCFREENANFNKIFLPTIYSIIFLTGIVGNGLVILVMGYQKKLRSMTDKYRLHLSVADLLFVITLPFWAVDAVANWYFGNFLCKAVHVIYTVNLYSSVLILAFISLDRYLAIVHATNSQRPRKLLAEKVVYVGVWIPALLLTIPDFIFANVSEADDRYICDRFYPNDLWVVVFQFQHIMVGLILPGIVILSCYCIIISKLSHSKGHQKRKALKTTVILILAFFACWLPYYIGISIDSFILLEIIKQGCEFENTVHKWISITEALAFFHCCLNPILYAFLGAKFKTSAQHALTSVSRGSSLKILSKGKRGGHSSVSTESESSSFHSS
T3 sequence (P09769 whole entry): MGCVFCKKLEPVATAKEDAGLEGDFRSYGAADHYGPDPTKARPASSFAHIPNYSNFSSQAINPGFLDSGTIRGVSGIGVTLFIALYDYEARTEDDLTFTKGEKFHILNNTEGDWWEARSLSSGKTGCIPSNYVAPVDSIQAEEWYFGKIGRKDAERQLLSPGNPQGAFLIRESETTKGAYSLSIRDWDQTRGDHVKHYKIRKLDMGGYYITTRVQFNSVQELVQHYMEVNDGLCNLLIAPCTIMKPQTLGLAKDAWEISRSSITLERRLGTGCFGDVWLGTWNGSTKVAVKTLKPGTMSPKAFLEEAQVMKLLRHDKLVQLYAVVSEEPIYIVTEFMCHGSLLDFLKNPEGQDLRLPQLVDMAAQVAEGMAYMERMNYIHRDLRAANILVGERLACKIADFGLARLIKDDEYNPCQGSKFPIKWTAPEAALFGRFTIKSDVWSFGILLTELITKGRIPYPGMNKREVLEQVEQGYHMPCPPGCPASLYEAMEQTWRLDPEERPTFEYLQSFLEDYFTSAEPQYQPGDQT
Chain of BTK (Q06187 whole entry): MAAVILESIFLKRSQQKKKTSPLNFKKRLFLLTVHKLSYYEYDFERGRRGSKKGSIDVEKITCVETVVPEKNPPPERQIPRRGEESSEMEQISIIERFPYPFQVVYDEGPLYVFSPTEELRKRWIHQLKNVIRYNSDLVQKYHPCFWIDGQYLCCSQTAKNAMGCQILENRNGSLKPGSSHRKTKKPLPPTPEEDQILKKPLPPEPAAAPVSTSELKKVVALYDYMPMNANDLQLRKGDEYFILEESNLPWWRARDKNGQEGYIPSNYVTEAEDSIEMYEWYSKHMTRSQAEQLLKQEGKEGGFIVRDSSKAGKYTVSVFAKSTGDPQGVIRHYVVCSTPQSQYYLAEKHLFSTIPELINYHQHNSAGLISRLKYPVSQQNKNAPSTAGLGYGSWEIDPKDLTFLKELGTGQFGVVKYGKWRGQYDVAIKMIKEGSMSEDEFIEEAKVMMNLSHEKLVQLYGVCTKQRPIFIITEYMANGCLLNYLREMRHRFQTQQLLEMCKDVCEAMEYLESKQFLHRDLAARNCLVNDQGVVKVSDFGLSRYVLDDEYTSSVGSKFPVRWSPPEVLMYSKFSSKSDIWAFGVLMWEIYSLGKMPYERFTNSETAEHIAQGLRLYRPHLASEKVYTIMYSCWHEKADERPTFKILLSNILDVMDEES
T4 sequence (P06213 28-1382): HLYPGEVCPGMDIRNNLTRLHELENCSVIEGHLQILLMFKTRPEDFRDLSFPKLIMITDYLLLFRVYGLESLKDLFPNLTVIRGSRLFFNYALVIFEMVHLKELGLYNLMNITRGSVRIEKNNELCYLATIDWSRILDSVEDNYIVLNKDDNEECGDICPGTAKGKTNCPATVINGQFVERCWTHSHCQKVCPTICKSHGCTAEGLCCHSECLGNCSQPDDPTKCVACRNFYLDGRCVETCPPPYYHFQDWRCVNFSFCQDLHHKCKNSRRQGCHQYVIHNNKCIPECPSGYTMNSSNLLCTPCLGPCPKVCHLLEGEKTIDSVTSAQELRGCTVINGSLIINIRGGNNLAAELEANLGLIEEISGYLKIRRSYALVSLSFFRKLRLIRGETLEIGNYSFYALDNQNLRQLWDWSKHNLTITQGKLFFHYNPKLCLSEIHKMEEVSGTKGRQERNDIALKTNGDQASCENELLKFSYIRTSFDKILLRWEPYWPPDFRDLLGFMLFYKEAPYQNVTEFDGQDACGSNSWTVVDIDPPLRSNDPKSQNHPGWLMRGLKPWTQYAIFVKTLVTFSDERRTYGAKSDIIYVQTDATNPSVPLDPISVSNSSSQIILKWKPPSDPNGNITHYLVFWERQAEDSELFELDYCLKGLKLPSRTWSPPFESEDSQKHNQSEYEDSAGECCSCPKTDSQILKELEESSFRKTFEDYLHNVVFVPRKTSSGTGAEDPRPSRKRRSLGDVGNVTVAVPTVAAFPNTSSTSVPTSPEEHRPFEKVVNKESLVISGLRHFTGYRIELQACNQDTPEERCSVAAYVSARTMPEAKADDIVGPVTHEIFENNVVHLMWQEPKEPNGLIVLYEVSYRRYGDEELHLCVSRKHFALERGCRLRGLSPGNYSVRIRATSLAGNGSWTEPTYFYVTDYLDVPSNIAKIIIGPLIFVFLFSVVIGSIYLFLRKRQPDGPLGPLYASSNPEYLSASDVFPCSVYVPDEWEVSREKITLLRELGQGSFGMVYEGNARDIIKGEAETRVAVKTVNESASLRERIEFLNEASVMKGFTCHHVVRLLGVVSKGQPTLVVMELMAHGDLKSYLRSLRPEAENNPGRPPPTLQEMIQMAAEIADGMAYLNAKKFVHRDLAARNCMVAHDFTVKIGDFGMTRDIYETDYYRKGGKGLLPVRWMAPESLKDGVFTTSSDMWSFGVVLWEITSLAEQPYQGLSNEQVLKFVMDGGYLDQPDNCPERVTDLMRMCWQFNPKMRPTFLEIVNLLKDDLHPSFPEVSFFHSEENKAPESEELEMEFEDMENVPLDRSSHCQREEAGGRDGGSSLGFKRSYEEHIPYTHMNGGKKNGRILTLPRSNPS

`O=C(c1ccc(Oc2ccccc2)cc1Cl)c1c[nH]c2ncnc(N[C@@H]3CC[C@@H](CO)OC3)c12` [ARQ-531, (2-chloro-4-phenoxyphenyl) (4-(((3R,6S)-6-(hydroxymethyl)tetrahydro-2H-pyran-3-yl)amino)-7H-pyrrolo[2,3-d]pyrimidin-5-yl) methanone]: the inhibition at 1 µM in experiment [1] was 50 to 69%; in experiment [2], 90 to 100%; in experiment [3], 70 to 89%; in experiment [4] it was 70 to 89%; in [5], 50 to 69%.

In the case of `Cc1cccnc1[C@H]1CCC[C@@H](c2ncccc2C)N1CCN1CCN(C(=O)c2ccc(-c3cc4c(-c5cccc(NC(=O)c6ccccc6)c5C)ncnc4[nH]3)cc2)CC1` [Compound I-10, N-(3-(6-(4-(4-(2-((2R,6S)-2,6-bis(3-methylpyridin-2-yl)piperidin-1-yl)ethyl)piperazine-1-carbonyl)phenyl)-7H-pyrrolo[2,3-d]pyrimidin-4-yl)-2-methylphenyl)benzamide], the inhibition at 1 µM is less than 50% in [1]; less than 50% in experiment [2]; less than 50% in experiment [3]; 50 to 89% in experiment [6] (at 1 μM, read-out: inhibition of ABL2); 70 to 89% in experiment [6] (setting [10]); 50 to 89% in experiment [7] (at 1 μM, read-out: inhibition of LIMK2). Further, the inhibition at 1 µM in experiment [7] (setting [11]) was 50 to 69%; in experiment [4] it was less than 50%; in experiment [5], less than 50%. Moreover, the IC50 in experiment [8] and in experiment [9] was 1 to 100 nM in each case.

Consider `Cc1cc(-c2ccnc(Nc3cnn(CCN4[C@@H](c5ncccc5C)CCC[C@H]4c4ncccc4C)c3)n2)ccc1CNC(=O)N1CC(OC(C)C)C1` [Compound I-11], for which the IC50 in [8] lay within 100 to 1000 nM; in experiment [9], 1 to 100 nM.

On to `Cc1cccnc1[C@H]1CCC[C@@H](c2ncccc2C)N1CCCCNC(=O)[C@@H]1CC[C@@H](Nc2ncnc3[nH]cc(C(=O)c4ccc(Oc5ccccc5)cc4Cl)c23)CO1` [Compound I-16], for which the IC50 lay in the range of 100 to 1000 nM in [8] and 1 to 100 nM in experiment [9].

Consider `Cc1cccnc1[C@H]1CCC[C@@H](c2ncccc2C)N1CCCCNC(=O)OC[C@@H]1CC[C@@H](Nc2ncnc3[nH]cc(C(=O)c4ccc(Oc5ccccc5)cc4Cl)c23)CO1` [Compound I-18], for which the 50% inhibitory concentration (IC50) in experiment [8] is greater than 2500 nM; in experiment [9], 1 to 100 nM.

With `COc1ccc(F)cc1C(=O)NCc1ccc(-c2nn([C@@H](C)C(F)(F)F)c(N)c2C(N)=O)cc1` [LOXO-305, pirtobrutinib], the inhibition at 1 µM in experiment [1], in experiment [2], in experiment [3], in experiment [6] (setting [10]), in experiment [7] (setting [11]) and in experiment [4] was less than 50% each time. In addition, the inhibition at 1 µM in [5] was less than 50%.

Consider `C=CC(=O)N1CCC([C@@H]2CCNc3c(C(N)=O)c(-c4ccc(Oc5ccccc5)cc4)nn32)CC1` [Zanubrutinib, (7S)-2-(4-phenoxyphenyl)-7-(1-prop-2-enoylpiperidin-4-yl)-4,5,6,7-tetrahydropyrazolo[1,5-a]pyrimidine-3-carboxamide], for which the inhibition at 1 µM in experiment [1], in experiment [2], in experiment [3], in [6] (setting [10]), in [7] (setting [11]) and in [4] was less than 50% throughout. For the same compound, the inhibition at 1 µM in experiment [5] was less than 50%.
